Measured values as given in patent publication US4587218A, “Novel bioconverting microorganisms” (priority 1983, dated 1986).

Assays:
[1] = system: wild-type strain (ATCC 23342); assay: Buffer toxicity at pH 7.0, wild-type strain; conditions: buffers 0.05M adjusted to pH 7.0, growth checked
[2] = system: mutants (ATCC 31683, CSV 558 and CUC 014); assay: Buffer toxicity at pH 7.0, mutant strains; conditions: all the mutants; buffers 0.05M adjusted to pH 7.0, growth checked
[3] = system: Cultures ATCC 23342, ATCC 31683, CSV 558 and CUC 014; assay: Sensitivity to nine antibiotics, all four cultures; format: cell-based, Actinoplanes missouriensis; conditions: identical pattern
Method: Temperature range, NaCl and sucrose tolerances, pH range, and antibiotic sensitivity were determined using ISP No. 2 (yeast-malt extract agar) plates. Plates were incubated at 30° C. for 14 days. The temperatures tested were 5°, 10°, 15°, 20°, 25°, 30°, 37°, 40°, 45°, 50° and 55° C.
Antibiotic sensitivity was determined using sensitivity discs padded on the surface of seeded agar plates. The following antibiotics were used: cephalothin (sodium) 30 μg, erythromycin (estolate) 15 μg, chloromycetin 30 μg, novobiocin 30 μg, penicillin (G) 10 units, rifampin 5 μg, streptomycin 10 μg, tetracycline 30 μg and vancomycin 30 μg.

Row | SMILES | sensitivity to citric acid [1] | sensitivity to citric acid [2] | sensitivity to nine antibiotics [3]
1 | O=C(O)CC(O)(CC(=O)O)C(=O)O [citric acid] | not sensitive | sensitive | –
2 | CC1(C)S[C@@H]2[C@H](NC(=O)Cc3ccccc3)C(=O)N2[C@H]1C(=O)O [Penicillin G] | – | – | Resistance
3 | CO[C@@H]1[C@@H](OC(N)=O)[C@@H](O)[C@H](Oc2ccc3c(O)c(NC(=O)c4ccc(O)c(CC=C(C)C)c4)c(=O)oc3c2C)OC1(C)C [Novobiocin] | – | – | Resistance
